Data: PubChem BioAssay AID1259371 (The Scripps Research Institute Molecular Screening Center, 2018)
Activity calls are given as the source filed them. The rule behind the calls is not given here.

Target: Microphthalmia-associated transcription factor (Homo sapiens) (UniProt O75030)
Assay: compounds blocking human MITF signal – biochemical, AlphaScreen, dose response (AID 1259371)
Conditions: AlphaScreen biochemical MITF assay, signal inhibition

Microphthalmia-associated transcription factor (Homo sapiens), sequence (O75030 whole entry, looked up): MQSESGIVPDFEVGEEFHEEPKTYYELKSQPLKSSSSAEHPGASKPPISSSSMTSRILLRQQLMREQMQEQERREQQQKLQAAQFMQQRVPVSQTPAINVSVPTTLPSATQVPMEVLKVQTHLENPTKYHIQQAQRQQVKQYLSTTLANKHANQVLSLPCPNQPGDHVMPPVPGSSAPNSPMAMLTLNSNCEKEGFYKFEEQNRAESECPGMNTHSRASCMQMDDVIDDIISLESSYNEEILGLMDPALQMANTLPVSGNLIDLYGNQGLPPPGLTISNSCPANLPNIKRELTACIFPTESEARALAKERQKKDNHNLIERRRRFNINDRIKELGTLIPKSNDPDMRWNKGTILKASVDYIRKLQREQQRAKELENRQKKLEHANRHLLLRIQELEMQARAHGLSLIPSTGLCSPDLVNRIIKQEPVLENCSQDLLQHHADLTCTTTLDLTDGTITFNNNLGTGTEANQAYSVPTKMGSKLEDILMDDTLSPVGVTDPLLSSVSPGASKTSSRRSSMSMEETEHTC

Structure (SMILES)	IC50
CN(C)CCCNC(=O)c1cccc(CN(C(=O)c2nc3ccc(-c4cn[nH]c4)cc3s2)C2CC2)c1	inactive
CC(=O)NS(=O)(=O)c1ccc(NC(=O)c2ccc([N+](=O)[O-])o2)cc1	inactive
O=c1[nH]c(-c2ccco2)nc2sc3c(c12)CCCC3	42.3 nM
Cc1cccc(NC(=O)c2ccc(NS(=O)(=O)c3ccc4[nH]cc(C(=O)O)c(=O)c4c3)cc2)c1	> 1580 nM (inactive)
CN(Cc1ccco1)S(=O)(=O)c1ccc2[nH]cc(C(=O)O)c(=O)c2c1	inactive
CCOC(=O)C1CCCN(Cc2cccc(Br)c2)C1 (centres undefined)	> 6480 nM (inactive)
O=C(/C=C/c1ccco1)Nc1nnc(-c2ccco2)s1	> 6480 nM (inactive)
COc1nccnc1NS(=O)(=O)c1ccc(NC(=O)c2ccc([N+](=O)[O-])c(C)c2)cc1	> 6480 nM (inactive)
N#Cc1c(-c2ccco2)cc(-c2ccco2)nc1N	20 nM
O=C1N[C@@H](COCc2ccccc2)C(=O)N2CCN(C(=O)NCc3ccccc3)C[C@H]12	inactive
O=C(O)c1cc(NN=C2CCCC2)ccc1Cl	408 nM
Cc1ccc(C)n1C(CC(=O)O)c1ccsc1 (centres undefined)	255 nM
N#C/C(=C/c1ccco1)c1cccc(F)c1	inactive
Cc1cncc2c(S(=O)(=O)N3CC[C@@H](NC(=O)C(O)c4ccc(F)cc4F)C3)cccc12 (some centres undefined)	inactive
O=C1O[C@H](C(O)CO)C(O)=C1O (some centres undefined)	inactive
Cc1cc(NC(=O)C2CCN(C(=O)c3ccc(-n4cccc4)cc3)CC2)no1	inactive
O=C(Nc1ccc(Oc2ccccc2)cc1)c1ccnc(-c2cccs2)c1	> 6710 nM (inactive)
O=C(NCC(O)C(=O)N1CCOCC1)c1cccc(Nc2ccc3[nH]ncc3c2)n1 (centres undefined)	inactive
CCOC(=O)N1CCN(C(=S)Nc2ccc(OCC)cc2)CC1	inactive
CCOC(=O)C1C2NC(=S)N(c3ccc(C)cc3)C1(C)Oc1c(OCC)cccc12 (centres undefined)	> 4890 nM (inactive)
CCN1CCN(Cc2coc3ccccc3c2=O)CC1	> 6480 nM (inactive)
O=C(Nc1cc(S(=O)(=O)O)cc2cc(S(=O)(=O)O)cc(O)c12)c1ccccc1	951 nM
CC[C@H](C)[C@@H]1NC(=O)[C@H]2CN(C(=O)NC3CCCCC3)CCN2C1=O	> 2160 nM (inactive)
O=C(Nc1ccc(N2CCOCC2)cc1)c1ccnc(Nc2ncccn2)c1	inactive
O=C(C1CCC(Nc2nccc(-c3ccc4nc(C5CC5)[nH]c(=O)c4c3)n2)CC1)N1CCCC1 (centres undefined)	inactive

Structure (SMILES)	IC50
O=C(O)c1ccc(CNC(=O)c2cocc2C(=O)O)o1	> 7320 nM (inactive)
Cc1n[nH]c(=O)nc1NNc1ccc(C(=O)O)cc1	inactive
C[C@H](O)[C@H]1NC(=O)[C@H]2CN(C(=O)NCc3ccccc3)CCN2C1=O	inactive
CCCCCCCCCCCCCCCC(=O)OC[C@H](O)[C@H]1OC(=O)C(=O)C1O (some centres undefined)	inactive
O=C(Nc1ccc(Cl)cc1Cl)N1CCN2C(=O)[C@@H]3CSCN3C(=O)[C@H]2C1	inactive
O=C(O)c1cc([N+](=O)[O-])cc2c1-c1c(cc([N+](=O)[O-])cc1[N+](=O)[O-])/C2=C/c1ccco1	inactive
O=C(Nc1ccc(N2CCOCC2)cc1)c1cccc(Nc2ccncn2)n1	inactive
CN(CCc1ccccn1)Cc1ccc(F)cc1	inactive
CCC(C)NCCOc1cccc(Br)c1 (centres undefined)	> 6480 nM (inactive)
CC[C@@H]1NC(=O)[C@H]2CN(C(=O)NC3CCCCC3)CCN2C1=O	270 nM
Cc1cc2ncn(Cc3noc(-c4ccco4)n3)c2cc1C	> 6480 nM (inactive)
COC(=O)CSc1nnc(-c2cnccn2)n1C	> 6480 nM (inactive)
COc1ccc(C)cc1NC(=O)C(NCC(O)c1ccccc1)c1ccccc1 (centres undefined)	inactive
OCCNc1cc(-c2cccs2)ncn1	inactive
O=C(NCC(c1cccs1)S(=O)(=O)c1ccc(Cl)cc1)c1ccco1 (centres undefined)	inactive
O=C(O)c1cc(S(=O)(=O)Nc2ccc3cn[nH]c3c2)ccc1O	inactive
C/C(=N\NC(=O)CC1=NNC(=O)C1)c1ccco1	inactive
N[C@@H](C(=O)N[C@@H]1C(=O)N2C(C(=O)O)=C(CSC3CNNN3)CS[C@H]12)c1ccc(O)cc1 (some centres undefined) (tested in a mixture with another compound)	324 nM
CCCOc1ccc(N)cc1N	inactive
Cc1ccc2[nH]c(=O)c(=O)[nH]c2c1	> 12100 nM (inactive)
O=C(NCc1ccccc1)N1CCN2C(=O)[C@@H]3CSCN3C(=O)[C@H]2C1	inactive
CN1CCN(C(=O)c2ccc(-c3nc(Nc4ccccc4)c4ncn(C5CCCCC5)c4n3)cc2)CC1	> 7630 nM (inactive)
O=C1N[C@@H](Cc2ccccc2)C(=O)N2CCN(C(=O)NCc3ccccc3)C[C@H]12	> 6480 nM (inactive)
CC[C@H](C)[C@@H]1NC(=O)[C@H]2CN(C(=O)NCc3ccccc3)CCN2C1=O	inactive
Cc1occc1C(=O)N/N=C/C=C/c1ccco1	11.2 nM

Structure (SMILES)	IC50
O=S(=O)(N=S(=O)(/C=C/c1ccccc1)c1ccccc1)c1ccccc1 (centres undefined)	> 5360 nM (inactive)
O=C(O)c1cc2ncc(-c3n[nH]c(-c4cnc5cc(C(=O)O)nn5c4)c3[N+](=O)[O-])cn2n1	641 nM
OC[C@H]1OC([S-])[C@H](O)[C@@H](O)[C@@H]1O.[Au+] (some centres undefined)	inactive
Cc1ccc(C)n1C(Cc1c[nH]c2ccccc12)C(=O)O (centres undefined)	680 nM
O=C(NCCc1ccc(O)cc1)c1cccc(-c2cccs2)c1	> 6260 nM (inactive)
C/C(=N\Nc1ccc(S(=O)(=O)O)cc1)c1ccc([N+](=O)[O-])o1	> 2160 nM (inactive)
CC(C)NC(=O)/C(C#N)=C/c1ccc(-c2ccc([N+](=O)[O-])cc2Br)o1	314 nM
O=C1NC(=S)N/C1=C\c1ccc([N+](=O)[O-])o1	239 nM
O=S(=O)(O)c1ccc(N/N=C2\CCc3ccccc32)cc1	> 2160 nM (inactive)
Oc1ccc(CCNc2cc(-c3cccs3)ncn2)cc1	> 6700 nM (inactive)
CN(C)/C=C/C=C/C(=O)c1cccc(C(=O)/C=C/C=C/N(C)C)c1O	303 nM
Cc1nnc(CNC(=O)c2ccc(-n3cccc3)cc2)o1	inactive
CC(=O)NC1=NC(=O)/C(=C\c2ccc(Br)o2)S1	153 nM
Cc1cccc(N2CCN(C(=O)/C=C\C(=O)O)CC2)c1C	inactive
CN1CC[C@H](Oc2cc(-c3cn[nH]c3)ccc2NC(=O)OCc2ccccc2)C1	inactive
Nc1ccc(O)c(C(=O)O)c1	18.7 nM
O=C(Nc1ccc(-c2cn[nH]c2)c(C(F)(F)F)c1)C1COc2ccccc2O1 (centres undefined)	> 2160 nM (inactive)
NC(=O)Cn1cnc2sc3c(c2c1=O)CCC3	inactive
O=C(NCc1ccccc1)N1CCN2C(=O)[C@@H]3CCCN3C(=O)[C@H]2C1	inactive
Clc1ccc2c(c1)CC(c1nc(Nc3cncnc3)c3ccccc3n1)CO2 (centres undefined)	inactive
O=C1N[C@@H](CSCc2ccccc2)C(=O)N2CCN(C(=O)NC3CCCCC3)C[C@H]12	inactive
CCN(CC)C(=S)NC(=O)/C=C/c1ccco1	89.4 nM
COc1cccc(COC(=O)Nc2ccc(-c3cn[nH]c3)cc2N(C)CCN(C)C)c1	inactive
O=C(OC1CCOC1=O)c1ccc(S(=O)(=O)NCc2ccco2)cc1 (centres undefined)	> 2370 nM (inactive)
